What was measured:
Assay type in all cases: in vivo, mouse
mice [1] = assay: Ocular dominance plasticity (monocular deprivation, intrinsic signal imaging); details: adult mice, 10 mg/kg i.p. every second day for 8 days
Protocol: The “transparent skull” preparation was executed as described in literature ([Steinzeig et al., 2017]). Briefly, adult female mice (20-22 weeks old) were anesthetized via i.p. injection with a mixture containing: 0.05 mg/kg fentanyl (Hameln, Germany); 5 mg/kg midazolam (Hameln, Germany); 0.5 mg/kg medetomidine (Orion Pharma, Finland); diluted in saline (B Braun, Germany). The animals’ eyes were covered with protective-gel (Alcon, UK). The animal’s head was shaved and disinfected with ethanol and Betadine. The mouse head was then fixed on the stereotaxic frame and the temperature was maintained at 37°C. A mixture of lidocaine and adrenaline (Orion Pharma, Finland) was applied locally on the head and the skin was cut with spring scissors. The incision area was restricted 2 mm above the bregma and caudal edge of intraparietal bone. The scalp was removed and a focused air stream and a cotton swab were used to clean and stop bleeding. The periosteum was gently scratched away from the skull with an eye scalpel and the temporal muscles were pushed aside, in order to expose enough space around the area of interest to attach the metal holder. When the skull was smooth, white and dry, fat was removed from the skull rapidly by passing on it a cotton swab soaked in acetone and the air current was used to avoid its penetration into the bone. Then, with a metal stick, a thin layer of cyanoacrylate glue (Loctite 401, Henkel, Germany) was applied to the surface of the skull, in order to make the skull transparent. After waiting 10 minutes for the glue to dry, a first layer of acryl was applied on the skull surface with a brush. Acryl was used to prolong the life of the transparency and was prepared by stirring acrylic powder (EUBECOS, Germany) with methacrylate liquid (Densply, Germany) until a nail-polish consistency was reached. After 30 minutes, a second layer of acryl was applied and was left to dry overnight. Finally, the animals were injected s.c. with 5 mg/kg Carprofen (ScanVet, Nord Ireland) for postoperative analgesia and i.p. with a wake-up composed by: 1.2 mg/kg Naloxone (Orpha-Devel Handels und Vertriebs GmbH, Austria), opioid receptor antagonist; 0.5 mg/kg Flumazenil (Hameln, Germany), GABA-A receptor antagonist; 2.5 mg/kg Atipamezole (Vet Medic animal Health Oy, Finland), adrenergic receptor antagonist; diluted in saline (B Braun, Germany). The next day, isoflurane at 4% was used for a couple of minutes to induce the anesthesia and then it was reduced at 2% for the procedure. The acryl layer was polished only on the area of interest, using a hand drill with a polishing bit. […]
Optical imaging. The saturation of haemoglobin in the primary visual cortex of the right hemisphere was measured to assess cortical activity ([Cang et al., 2005]; [Kalatsky and Stryker, 2003]). […]

mice [2] = assay: BrdU incorporation (hippocampal neurogenesis); details: FLX 15 mg/kg/day 21 days p.o.
Protocol: Animals: both males and females were used in this experiment. The Bromodeoxyuridine (BrdU) (Sigma) was administered intraperitoneally at the dose of 75 mg/kg four times every 2 hr to reach 300 mg/kg total for each animal. […] On day 21 of the drug treatment, the animals were euthanized by CO2, brains were quickly removed, followed by hippocampus dissection on ice, instantly frozen on dry ice and stored at −80°C until further use.
A semiquantitative dot-blot method was performed as previously described with minor modifications ([Wu and Castrén, 2009]). To isolate the DNA of the hippocampus samples, DNeasy® Blood and Tissue Kit (QIAGEN, Germany) was used. The extraction procedure was as per the manufacturer’s instruction. The DNA purity was assessed by the spectrophotometer NanoDrop 2000C (ThermoFisher Scientific, USA). DNA was incubated with 1 volume of 4N NaOH solution for 30 min at room temperature to render it as single stranded and immediately kept on ice to prevent reannealing. The DNA solution was neutralized by an equal volume of 1M Tris-HCl (pH 6.8). The single-stranded neutralized DNA (1ug) was dot-blotted onto a nylon transfer membrane (Schlleicher and Schuell, Keene, NH) with a dot-blot apparatus (Minifold, Schlleicher and Schuell) under vacuum and the DNA was fixed by ultraviolet cross-linker (1200 μJ × 100, Stratagene, La Jolla, CA). […]

mice [3] = assay: Object location memory (OLM) test
Protocol: Object-location memory (OLM): this test was performed in a square arena (28cm side) with opaque walls containing cues (black stripes or spots). The adult male and female mice (18-22 weeks old) were placed for 3 consecutive days (15min per session) in the arena with two identical objects (table tennis balls glued to caps of 50ml Falcon tubes) in the same position throughout the sessions (pretest).

| Structure (SMILES) | shift in ocular dominance after 7-day monocular deprivation (mice [1]) | survival of newborn hippocampal neurons (mice [2]; TRKB.Y433F mice) | survival of newborn hippocampal neurons (mice [2]; wild-type mice) | response in OLM test (mice [3]; BDNF haploinsufficient mice) | long-term memory in OLM test (mice [3]; TRKB.wt mice, FLX 15 mg/kg/day for 7 days) | response in OLM test (mice [3]; animals co-treated with pravastatin) | response in OLM test (mice [3]; serotonin transporter knockout (5HTT.ko) mice) |
| --- | --- | --- | --- | --- | --- | --- | --- |
| CNC1(c2ccccc2Cl)CCCCC1=O (stereo not shown) [KET, ketamine] | significant shift in OD | – | – | – | – | – | – |
| CNCCC(Oc1ccc(C(F)(F)F)cc1)c1ccccc1 (stereo not shown) [FLX, fluoxetine] | – | no increase was observed | significantly increased survival of newborn hippocampal neurons | lack of response | facilitated long-term memory | lack of response | responded to FLX treatment normally |
